Data taken from patent US8273890B2 (4SC AG, priority 2007, dated 2012).

target: T1, recombinant Plk1 protein (Homo sapiens, UniProt P53350); experiment: Plk1 kinase activity inhibition assay (33P-ATP, alpha casein substrate, flash plates); assay type: biochemical; settings: enzymatic assay, 100 nM Li-ATP, 80 minutes at 30° C.
T1 construct: histidine tag (N); made in house; host or cells: SF9 insect cells
Protocol: The inhibition of Plk1 kinase activity can be measured using recombinant Plk1 protein expressed as an N-terminally histidine-tagged protein in SF9 insect cells and alpha casein as substrate. The Plk1 assay is run in 96 well plates by incubating 50 to 100 ng per well recombinant Plk1, 500 ng per well alpha casein (Sigma, # C-6780) as substrate, 10 μl of compound of invention (test compounds were dissolved as 20 mM solutions in dimethylsulfoxide (DMSO) and subsequently diluted), and 100 nM Li-ATP (including ^33P-ATP) in 100 μl of reaction buffer ([…] HEPES, pH 7.5; 3 mM MgCl2; 3 mM MnCl2; 3 μM Na-Orthovanadat; 1 mM DTT; 1 μg/ml PEG 8000) for 80 minutes at 30° C. The reactions are terminated by adding 100 μl stopping buffer (2% H3PO4 for 5 minutes) and are washed 3 times with washing solution (0.9% NaCl). Determining ^33P incorporated into the protein substrate alpha casein, the detection is based on the adhesion of the phosphorylated protein to the surface of scintillator-coated flash plates (Perkin Elmer, USA; #SMP-200). Phosphorylation of alpha casein is measured by counting the radioactivity bound to the plate for 60 sec. using a plate reader (Perkin Elmer, USA; Wallac Microbeta). By this method, the IC50 value of the Plk1 inhibition is determined as described above.

T1 sequence (P53350 whole entry): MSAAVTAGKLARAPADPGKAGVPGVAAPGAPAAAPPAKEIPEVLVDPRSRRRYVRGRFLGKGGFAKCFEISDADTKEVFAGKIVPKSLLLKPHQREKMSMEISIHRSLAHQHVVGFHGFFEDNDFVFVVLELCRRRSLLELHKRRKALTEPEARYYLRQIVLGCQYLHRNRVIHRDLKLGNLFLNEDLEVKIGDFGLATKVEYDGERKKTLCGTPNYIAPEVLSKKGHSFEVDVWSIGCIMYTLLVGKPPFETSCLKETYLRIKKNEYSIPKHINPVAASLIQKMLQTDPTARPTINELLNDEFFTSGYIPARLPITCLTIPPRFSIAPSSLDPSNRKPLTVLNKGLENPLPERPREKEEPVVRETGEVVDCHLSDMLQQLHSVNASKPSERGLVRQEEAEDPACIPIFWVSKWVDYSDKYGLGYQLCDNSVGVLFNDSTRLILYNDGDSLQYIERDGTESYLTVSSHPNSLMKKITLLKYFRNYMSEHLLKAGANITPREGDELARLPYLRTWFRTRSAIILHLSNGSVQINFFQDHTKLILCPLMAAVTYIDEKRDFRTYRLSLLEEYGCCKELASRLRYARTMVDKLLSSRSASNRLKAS

Row | SMILES | IC50 [nM]
1 | CCc1ccccc1COc1cc(-n2cnc3cnc(CN4CCN(C)CC4)cc32)sc1C(N)=O [Example 153, 3-[(2-ethylbenzyl)oxy]-5-{6-[(4-methylpiperazin-1-yl)methyl]-1H-imidazo[4,5-c]pyridin-1-yl}thiophene-2-carboxamide] | < 10
2 | C[C@@H](Oc1cc(-n2cnc3cnc(CN4CCN(CCN(C)C)CC4)cc32)sc1C(N)=O)c1ccccc1C(F)(F)F [Example 70, 5-[6-({4-[2-(dimethylamino)ethyl]piperazin-1-yl}methyl)-1H-imidazo[4,5-c]pyridin-1-yl]-3-{(1R)-1-[2-(trifluoromethyl)phenyl]ethoxy}thiophene-2-carboxamide] | 10 to 100
3 | C[C@@H](Oc1cc(-n2cnc3cnc(CN4CCN(c5ccccc5)CC4)cc32)sc1C(N)=O)c1ccccc1C(F)(F)F [Example 59, 5-{6-[(4-phenylpiperazin-1-yl)methyl]-1H-imidazo[4,5-c]pyridin-1-yl}-3-{(1R)-1-[2-(trifluoromethyl)phenyl]ethoxy}thiophene-2-carboxamide] | 10 to 100
4 | C[C@@H](Oc1cc(-n2cnc3cnc(CN4CCN(CC(=O)N5CCOCC5)CC4)cc32)sc1C(N)=O)c1ccccc1C(F)(F)F [Example 124, 5-(6-{[4-(2-morpholin-4-yl-2-oxoethyl)piperazin-1-yl]methyl}-1H-imidazo[4,5-c]pyridin-1-yl)-3-{(1R)-1-[2-(trifluoromethyl)phenyl]ethoxy}thiophene-2-carboxamide] | 10 to 100
5 | CN1CCN(Cc2cc3c(cn2)ncn3-c2cc(OCc3ccccc3C(F)(F)F)c(C(N)=O)s2)CC1 [Example 8, 5-{6-[(4-Methylpiperazin-1-yl)methyl]1H-imidazo[4,5-c]pyridin-1-yl}-3-{[2-(trifluoromethyl)benzyl]oxy}thiophene-2-carboxamide] | < 10
6 | C[C@@H](Oc1cc(-n2cnc3cnc(CN4CCN(S(C)(=O)=O)CC4)cc32)sc1C(N)=O)c1ccccc1C(F)(F)F [Example 66, 5-(6-{[4-(methylsulfonyl)piperazin-1-yl]methyl}-1H-imidazo[4,5-c]pyridin-1-yl)-3-{(1R)-1-[2-(trifluoromethyl)phenyl]ethoxy}thiophene-2-carboxamide] | < 10
7 | NC(=O)c1sc(-n2cnc3ccncc32)cc1OCc1ccc(F)cc1C(F)(F)F [Example 41, 3-{[4-fluoro-2-(trifluoromethyl)benzyl]oxy}-5-(3H-imidazo[4,5-c]pyridin-3-yl)thiophene-2-carboxamide] | 10 to 100
8 | COCCN1CCN(Cc2cc3c(cn2)ncn3-c2cc(O[C@H](C)c3ccccc3C(F)(F)F)c(C(N)=O)s2)CC1 [Example 69, 5-(6-{[4-(2-methoxyethyl)piperazin-1-yl]methyl}-1H-imidazo[4,5-c]pyridin-1-yl)-3-{(1R)-1-[2-(trifluoromethyl)phenyl]ethoxy}thiophene-2-carboxamide] | < 10
9 | CCc1ccccc1COc1cc(-n2cnc3cnc(CN4CCN(CC)CC4)cc32)sc1C(N)=O [Example 154, 3-[(2-ethylbenzyl)oxy]-5-{6-[(4-ethylpiperazin-1-yl)methyl]-1H-imidazo[4,5-c]pyridin-1-yl}thiophene-2-carboxamide] | 10 to 100
10 | NC(=O)c1sc(-n2cnc3ncccc32)cc1OCc1ccccc1C(F)(F)F [Example 20, 5-(1H-Imidazo[4,5-b]pyridin-1-yl)-3-{[2-(trifluoromethyl)benzyl]oxy}thio-phene-2-carboxamide] | 100 to 1000

Second part, the compound after the results:

Row | IC50 [nM] | SMILES
11 | 10 to 100 | Cc1ccccc1C(C)Oc1cc(-n2cnc3cnc(CN4CCN(C(C)C)CC4)cc32)sc1C(N)=O (stereo not shown) [Example 149, 5-{6-[(4-isopropylpiperazin-1-yl)methyl]-1H-imidazo[4,5-c]pyridin-1-yl}-3-[1-(2-methylphenyl)ethoxy]thiophene-2-carboxamide]
12 | < 10 | C[C@@H](Oc1cc(-n2cnc3cnc(CO)cc32)sc1C(N)=O)c1ccccc1Cl [Example 54, 3-[(1R)-1-(2-chlorophenyl)ethoxy]-5-[6-(hydroxymethyl)-1H-imidazo[4,5-c]pyridin-1-yl]thiophene-2-carboxamide]
13 | 10 to 100 | C[C@@H](Oc1cc(-n2cnc3cc(CO)ncc32)sc1C(N)=O)c1ccccc1C(F)(F)F [Example 47, 5-[6-(hydroxymethyl)-3H-imidazo[4,5-c]pyridin-3-yl]-3-{(1R)-1-[2-(trifluoromethyl)phenyl]ethoxy}thiophene-2-carboxamide]
14 | < 10 | C[C@@H](Oc1cc(-n2cnc3cnc(CN4CCN(C5CC5)CC4)cc32)sc1C(N)=O)c1ccccc1C(F)(F)F [Example 60, 5-{6-[(4-cyclopropylpiperazin-1-yl)methyl]-1H-imidazo[4,5-c]pyridin-1-yl}-3-{(1R)-1-[2-(trifluoromethyl)phenyl]ethoxy}thiophene-2-carboxamide]
15 | < 10 | C[C@@H](Oc1cc(-n2cnc3cnc(CN4CCNCC4)cc32)sc1C(N)=O)c1ccccc1C(F)(F)F [Example 92]
16 | 10 to 100 | CC(Oc1cc(-n2cnc3cc(CO)ncc32)sc1C(N)=O)c1ccccc1F (stereo not shown) [Example 163, 3-[-1-(2-fluorophenyl)ethoxy]-5-[6-(hydroxymethyl)-3H-imidazo[4,5-c]pyridin-3-yl]thiophene-2-carboxamide]
17 | < 10 | C[C@@H](Oc1cc(-n2cnc3cnc(CN4CCN(C)C(=O)C4)cc32)sc1C(N)=O)c1ccccc1C(F)(F)F [Example 72, 5-{6-[(4-methyl-3-oxopiperazin-1-yl)methyl]-1H-imidazo[4,5-c]pyridin-1-yl}-3-{(1R)-1-[2-(trifluoromethyl)phenyl]ethoxy}thiophene-2-carboxamide]
18 | < 10 | Cc1ccccc1C(C)Oc1cc(-n2cnc3cnc(CN4CCN(C)CC4)cc32)sc1C(N)=O (stereo not shown) [Example 148, 3-[1-(2-methylphenyl)ethoxy]-5-{6-[(4-methylpiperazin-1-yl)methyl]-1H-imidazo[4,5-c]pyridin-1-yl}thiophene-2-carboxamide]
19 | 10 to 100 | C[C@@H](Oc1cc(-n2cnc3cnc(CN4CCN(CCN(C)C)CC4)cc32)sc1C(N)=O)c1ccccc1Cl [Example 132, 3-[(1R)-1-(2-chlorophenyl)ethoxy]-5-[6-({4-[2-(dimethylamino)ethyl]piperazin-1-yl}methyl)-1H-imidazo[4,5-c]pyridin-1-yl]thiophene-2-carboxamide]
20 | < 10 | CC(C)N1CCN(Cc2cc3c(cn2)ncn3-c2cc(O[C@H](C)c3ccccc3C(F)(F)F)c(C(N)=O)s2)CC1 [Example 121, 5-{6-[(4-isopropylpiperazin-1-yl)methyl]-1H-imidazo[4,5-c]pyridin-1-yl}-3-{(1R)-1-[2-(trifluoromethyl)phenyl]ethoxy}thiophene-2-carboxamide]
21 | 10 to 100 | C[C@@H](Oc1cc(-n2cnc3cc(CNC4CC4)ncc32)sc1C(N)=O)c1ccccc1C(F)(F)F [Example 115, 5-{6-[(cyclopropylamino)methyl]-3H-imidazo[4,5-c]pyridin-3-yl}-3-{(1R)-1-[2-(trifluoromethyl)phenyl]ethoxy}thiophene-2-carboxamide]
22 | < 10 | C[C@@H](Oc1cc(-n2cnc3cnc(CO)cc32)sc1C(N)=O)c1ccccc1F [Example 55, 3-[(1R)-1-(2-fluorophenyl)ethoxy]-5-[6-(hydroxymethyl)-1H-imidazo[4,5-c]pyridin-1-yl]thiophene-2-carboxamide]
